This note sets out measurements from publication PMC8584173, “The Cytotoxic Effect of Copper (II) Complexes with Halogenated 1,3-Disubstituted Arylthioureas on Cancer and Bacterial Cells” (International Journal of Molecular Sciences, 2021).

One data set concerns S. epidermidis 438. In words: MIC, hospital MRSE strain. It is filed as cell-based, Staphylococcus epidermidis. Conditions: hospital MRSE S. epidermidis 438. Here is the method: (§1) The antimicrobial activity of the compounds was tested on Gram-positive bacteria (Staphylococcus aureus NCTC 4163, Staphylococcus aureus ATCC 25923, Staphylococcus aureus ATCC 6538, Staphylococcus aureus ATCC 29213, Staphylococcus epidermidis ATCC 12228, Staphylococcus epidermidis ATCC 35984), Gram-negative rods (Escherichia coli ATCC 10538, Escherichia coli ATCC 25922, Pseudomonas aeruginosa ATCC 15442, Pseudomonas aeruginosa ATCC 27863) and yeasts (Candida albicans ATCC 10231, Candida albicans ATCC 90028, Candida parapsilosis ATCC 22019). Hospital methicillin-resistant strains of Staphylococcus aureus and Staphylococcus epidermidis were obtained from the collection of the Department of Pharmaceutical Microbiology, Medical University of Warsaw, Poland.
(§2) Antifungal activities were assessed using Mueller–Hinton agar + 2% glucose and 0.5 µg/mL methylene blue dye medium. Sterile filter paper discs (9 mm diameter, Whatman Number 3 chromatography paper) were dripped with tested compound solutions (in dimethylsulfoxide, DMSO) to load 400 μg of a given compound per disc. Dry discs were placed on the surface of appropriate agar medium. The results (diameter of the growth inhibition zone) were read after 18 h of incubation at 35 °C. Minimal inhibitory concentration (MIC) was tested by the twofold serial microdilution method (in 96-well microtiter plates) using Mueller–Hinton broth medium (Beckton Dickinson) for bacteria or RPMI-1640 medium for Candida species, according to CLSI guidelines. The stock solution of tested agent was prepared in DMSO and diluted in sterile water. […] The final inoculum of all studied microorganisms was 10^5 CFU/ mL^−1 (colony forming units per ml). Minimal inhibitory concentrations (the lowest concentration of a tested agent that prevents visible growth of a microorganism) were read after 18 h (bacteria) or 24 h (yeasts) of incubation at 35 °C.

The next data set relates to S. epidermidis 433. Put plainly: MIC, hospital MRSE strain. It is filed as cell-based, Staphylococcus epidermidis. The conditions noted are these: hospital MRSE S. epidermidis 433. The procedure:
as §1, §2

The next data set relates to S. epidermidis 432. Put plainly: MIC, hospital MRSE strain. It is filed as cell-based, Staphylococcus epidermidis. The conditions noted are these: hospital MRSE S. epidermidis 432. Here is the method:
as §1, §2

For the next data set, the system named is S. epidermidis 437. Put plainly: MIC, hospital MRSE strain. It is filed as cell-based, Staphylococcus epidermidis. The conditions noted are these: hospital MRSE S. epidermidis 437. The procedure:
as §1, §2

The test system of the next data set is S. epidermidis 435. Put plainly: MIC, hospital MRSE strain. It is filed as cell-based, Staphylococcus epidermidis. Conditions: hospital MRSE S. epidermidis 435. The procedure:
as §1, §2

The next data set has as its system S. epidermidis 420. In words: MIC, hospital MRSE strain. Format: cell-based, Staphylococcus epidermidis. Conditions: hospital MRSE S. epidermidis 420. Here is the method:
as §1, §2

A further data set has as its system S. epidermidis 431. Put plainly: MIC, hospital MRSE strain. It is filed as cell-based, Staphylococcus epidermidis. Conditions: hospital MRSE S. epidermidis 431. Here is the method: as §1, §2
A further data set deals with S. epidermidis 513. In words: MIC, hospital MRSE strain. The conditions noted are these: hospital MRSE S. epidermidis 513. Format: cell-based, Staphylococcus epidermidis. Here is the method:
as §1, §2

In another data set the test system is S. epidermidis 469. Put plainly: MIC, hospital MRSE strain. It is filed as cell-based, Staphylococcus epidermidis. Conditions: hospital MRSE S. epidermidis 469. The procedure:
as §1, §2

The next data set has as its system S. epidermidis 423. Put plainly: MIC, hospital MRSE strain. It is filed as cell-based, Staphylococcus epidermidis. The conditions noted are these: hospital MRSE S. epidermidis 423. The procedure: as §1, §2
The next data set has as its system S. epidermidis 424. Put plainly: MIC, hospital MRSE strain. It is filed as cell-based, Staphylococcus epidermidis. Conditions: hospital MRSE S. epidermidis 424. Here is the method:
as §1, §2

Another data set has as its system S. epidermidis 511. In words: MIC, hospital MRSE strain. Format: cell-based, Staphylococcus epidermidis. The conditions noted are these: hospital MRSE S. epidermidis 511. The procedure: as §1, §2
In a further data set the test system is S. epidermidis 471. In words: MIC, hospital MRSE strain. The conditions noted are these: hospital MRSE S. epidermidis 471. Format: cell-based, Staphylococcus epidermidis. Here is the method: as §1, §2
In the next data set the test system is S. epidermidis 515. Put plainly: MIC, hospital MRSE strain. Conditions: hospital MRSE S. epidermidis 515. Format: cell-based, Staphylococcus epidermidis. The procedure:
as §1, §2

The next data set has as its system S. epidermidis 436. In words: MIC, hospital MRSE strain. Format: cell-based, Staphylococcus epidermidis. Conditions: hospital MRSE S. epidermidis 436. Here is the method:
as §1, §2

The subject of another data set is S. epidermidis 510. Put plainly: MIC, hospital MRSE strain. It is filed as cell-based, Staphylococcus epidermidis. Conditions: hospital MRSE S. epidermidis 510. Here is the method:
as §1, §2

Data set [1] deals with SW480 (human primary colon cancer). In words: MTT cytotoxicity assay, SW480. Format: cell-based. The conditions noted are these: SW480, 72 h. Here is the method:
The human primary (SW480), metastatic (SW620) colon cancer, metastatic prostate cancer (PC3) and human immortal keratinocyte (HaCaT) cell lines were purchased from the American Type Culture Collection (ATCC, Rockville, USA). The cells were cultured in medium according to protocols (MEM for SW480 and SW620, RPMI 1640 for PC3 and DMEM for HaCaT cells) supplemented with 10% fetal bovine serum (FBS), penicillin (100 U/mL) and streptomycin (100 μg/mL) and cultured in 37 °C/ 5% CO2 humidified incubator. The cells were cultured until appropriate confluence was achieved (80–90%). Next, they were harvested by treatment with 0.25% trypsin (Gibco Life Technologies, USA) and used for studies.
Cells without studied compounds in medium were used as a control.
The cell viability was assessed by determination of MTT salt (3-(4,5-dimethylthiazol-2-yl)-2,5-diphenyltetrazolium bromide) conversion by mitochondrial dehydrogenase. MTT assay was performed as previously described. Experiments were repeated three times. Cell viability was presented as a percentage of MTT reduction in the treated cells versus the control cells. Number of viable cells cultured without studied compounds was assumed to be 100%. Decreased relative MTT level means decreased cell viability. Thiourea complexes with the highest cytotoxic potential assessed by MTT determination (with the lowest IC50) were chosen for subsequent assessments of cytotoxicity mechanisms.

In data set [2] the test system is Bacillus subtilis M45 (rec−). Put plainly: Bacillus subtilis rec-assay, M45. It is filed as cell-based. Conditions: B. subtilis M45; 256 µg per disc (NOQ 2 µg per disc). Here is the method:
DNA-damaging activity of compounds was tested by rec-assay using two genetically modified Bacillus subtilis strains: M45 (rec^−) and H17 (rec^+). Tested compounds were dissolved in DMSO, and 10 µL of each solution was dripped onto sterile cotton discs (Rotilabo) to load 256 µg of a given compound per 9 mm disc. Discs were placed on the surface nutrient agar plates (Difco), inoculated with 100 µL of bacterial overnight culture and incubated […] at 35 °C. After incubation, the growth inhibition zones were measured. […] Results of the genotoxicity test were estimated after 18 h of incubation at 35 °C by comparing the diameter of the inhibition zone on the B. subtilis M45 (rec^−) strain with that on the B. subtilis H17 (rec^+) strain.

For data set [3], the system named is hospital S. epidermidis (MRSE). Put plainly: MIC, hospital S. epidermidis. It is filed as cell-based, Staphylococcus epidermidis. Conditions: for times more effective than the reference chemotherapeutic (ciprofloxacin): S. epidermidis 424, 471, 511, 515 and 431–433 isolates. Here is the method: as §1, §2

Usually MIC stands for the least concentration at which growth counts as inhibited. Low readings indicate greater potency, high ones weaker potency. Usually IC50 stands for the concentration that inhibits the measured activity by half. `O=[N+]([O-])c1cc([N+]2=C(Nc3ccc(F)c(Cl)c3)[S][Cu-2]23[S]C(Nc2ccc(F)c(Cl)c2)=[N+]3c2ccc(Cl)c([N+](=O)[O-])c2)ccc1Cl` [Compound 4, Copper (II) complex with 1-(3-chloro-4-fluorophenyl)-3-(4-chloro-3-nitrophenyl)thiourea]: the MIC against S. epidermidis 438 is given as 8 µg/mL; in the data set on S. epidermidis 433 it was 4 µg/mL; against S. epidermidis 432, 8 µg/mL; with S. epidermidis 437, 8 µg/mL; against S. epidermidis 435, 8 µg/mL; in the data set on S. epidermidis 420 it was 4 µg/mL. For the same compound, the MIC came to 8 µg/mL in the data set with S. epidermidis 431; 8 µg/mL against S. epidermidis 513; 4 µg/mL in the data set on S. epidermidis 469; 4 µg/mL with S. epidermidis 423; 8 µg/mL against S. epidermidis 424; 4 µg/mL in the data set on S. epidermidis 511. In addition, the minimal inhibitory concentration (MIC) is 8 µg/mL against S. epidermidis 471, 4 µg/mL with S. epidermidis 515, 8 µg/mL in the data set on S. epidermidis 436 and 8 µg/mL in the data set on S. epidermidis 510. The compound further gave an IC50 in [1] of 19.2 ± 1.1 µM. The compound further gave an inhibition zone diameter in [2] of 18 mm. For the same compound, the “times more effective than the reference chemotherapeutic (ciprofloxacin)” value in [3] was 2–16 times.

`O=[N+]([O-])c1cc([N+]2=C(Nc3ccc(Br)cc3)[S][Cu-2]23[S]C(Nc2ccc(Br)cc2)=[N+]3c2ccc(Cl)c([N+](=O)[O-])c2)ccc1Cl` [Compound 3, Copper (II) complex with 1-(4-bromophenyl)-3-(4-chloro-3-nitrophenyl)thiourea]: the minimum inhibitory concentration (MIC) against S. epidermidis 438 worked out at 4 µg/mL; in the data set with S. epidermidis 433, 4 µg/mL; against S. epidermidis 432, 4 µg/mL; with S. epidermidis 437, 8 µg/mL; against S. epidermidis 435, 4 µg/mL; against S. epidermidis 420, 8 µg/mL. Also, the MIC against S. epidermidis 431, with S. epidermidis 513, in the data set with S. epidermidis 469, with S. epidermidis 423, against S. epidermidis 424 and in the data set on S. epidermidis 511 was 4 µg/mL throughout. For the same compound, the MIC with S. epidermidis 471 is 8 µg/mL; against S. epidermidis 515, 8 µg/mL; in the data set on S. epidermidis 436, 4 µg/mL; against S. epidermidis 510 it was 4 µg/mL; in data set [3] (most of hospital S. epidermidis species) it was 4 to 8 µg/mL. The compound further displayed a 50% inhibitory concentration (IC50) in [1] of 11.9 ± 2.1 µM. Further, the inhibition zone diameter in data set [2] is listed as 15 mm.

In the case of `O=[N+]([O-])c1cc([N+]2=C(Nc3ccccc3Br)[S][Cu-2]23[S]C(Nc2ccccc2Br)=[N+]3c2ccc(Cl)c([N+](=O)[O-])c2)ccc1Cl` [Compound 1, Copper (II) complex with 1-(2-bromophenyl)-3-(4-chloro-3-nitrophenyl)thiourea], the MIC is on record as 8 µg/mL in the data set with S. epidermidis 438; 4 µg/mL against S. epidermidis 433; 8 µg/mL against S. epidermidis 432; 8 µg/mL with S. epidermidis 437; 8 µg/mL with S. epidermidis 435; 4 µg/mL against S. epidermidis 420. The MIC in the data set on S. epidermidis 431, in the data set on S. epidermidis 513, in the data set with S. epidermidis 469, against S. epidermidis 423, against S. epidermidis 424 and with S. epidermidis 511 was 8 µg/mL throughout. Moreover, the minimal inhibitory concentration (MIC) in the data set on S. epidermidis 471 was found to be 8 µg/mL; in the data set with S. epidermidis 515, 4 µg/mL; with S. epidermidis 436, 8 µg/mL; against S. epidermidis 510, 8 µg/mL. Moreover, it took 4.7 ± 0.3 µM to reach half-maximal inhibition in data set [1] (IC50). In data set [2], this compound came in with an inhibition zone diameter of 12 mm. The “times more effective than the reference chemotherapeutic (ciprofloxacin)” value in [3] was 2–16 times.
